Data as given in patent publication US6620828B2, “Thiazole compounds and pharmaceutical compositions for inhibiting protein kinases and methods for their use” (Agouron Pharmaceuticals, Inc., priority 1999, dated 2003).
pKi: −log10 of the molar value. “And” between values parts separate entries of the source, which are not always exact repeats. Equal entries are not always repeated. Where two headings read alike, the source gives them in different places.

Tests used:
[1] = target: T1, unphosphorylated VEGF-R2Δ50 (FLVK) (Homo sapiens, UniProt P35968, DEL940-989/E990V); assay: VEGF-R2 coupled spectrophotometric assay, unphosphorylated enzyme (FLVK); type: biochemical; details: Table 1
T1 construct: VEGF-R2Δ50 contains residues 806-939 and 990-1171; made in house; host or cells: baculovirus/insect cells
Procedure, shortened: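 Unphosphorylated VEGF-R2Δ50 (5 to 40 nM) with 20 mM poly(E4Y1), 3 mM ATP, 60 mM MgCl2, 2 mM MnCl2 in 200 mM Hepes pH 7.5. ADP production coupled via PK/LDH to NADH oxidation, read at 340 nm. Ki from activity at varying compound concentrations.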

[2] = target: T2, phosphorylated VEGF-R2Δ50 (FLVK-P) (Homo sapiens, UniProt P35968, DEL940-989/E990V); assay: VEGF-R2 coupled spectrophotometric (FLVK-P) assay; type: biochemical; details: spectrophotometric assay
T2 construct: VEGF-R2Δ50 contains residues 806-939 and 990-1171; made in house; host or cells: baculovirus/insect cells
Procedure, shortened: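 Baculovirus-expressed human VEGF-R2Δ50 (residues 806-939/990-1171, E990V) was autophosphorylated with 3 mM ATP, 40 mM MgCl2 for 2 h at 4° C. ADP formation was coupled via PK/LDH to NADH oxidation, read at 340 nm, with 5.1 mM poly(E4Y1), 1 mM ATP, 25 mM MgCl2, Hepes pH 7.5. Ki came from activity across compound concentrations.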

CHK1 = target: T3, CHK1 (Homo sapiens, UniProt O14757); assay: CHK1 high-throughput screening; type: biochemical; details: for % inhibition @ 20 μM: Table 4, repeated entries per example; for inhibition at 20 µM: read-out: % inhibition @ 20 μM, Table 4, repeated entries per example
T3 sequence (O14757 1-476): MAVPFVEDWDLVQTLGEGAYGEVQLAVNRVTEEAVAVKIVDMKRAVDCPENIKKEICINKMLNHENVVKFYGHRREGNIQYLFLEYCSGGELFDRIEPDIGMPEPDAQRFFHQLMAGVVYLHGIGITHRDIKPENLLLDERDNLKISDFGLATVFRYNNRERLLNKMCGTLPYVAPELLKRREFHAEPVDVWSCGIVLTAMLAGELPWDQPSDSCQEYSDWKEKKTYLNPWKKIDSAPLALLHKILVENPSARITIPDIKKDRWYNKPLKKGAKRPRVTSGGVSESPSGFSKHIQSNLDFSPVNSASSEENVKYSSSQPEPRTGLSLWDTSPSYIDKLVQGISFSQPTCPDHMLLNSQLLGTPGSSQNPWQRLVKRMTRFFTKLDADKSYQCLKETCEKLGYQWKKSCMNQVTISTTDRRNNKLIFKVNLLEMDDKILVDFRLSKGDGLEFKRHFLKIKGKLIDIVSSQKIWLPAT

CDK2/Cyclin A complex = CDK2/Cyclin A complex (Homo sapiens, UniProt P24941); assay: CDK2/Cyclin A assay; type: biochemical; details: for CDK2 % inhibition @ 10: at 10 (head μM)
Procedure, shortened: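 Radiometric assay: 150 nM CDK2/cyclin A (insect-cell CDK2, truncated cyclin A) phosphorylates His-tagged Rb fragment (residues 386-928) with 25 μM ATP plus [32P]ATP, pH 7.4 HEPES, 2% DMSO, 30 °C for 20 min. Filter-captured product counted by phosphorimager; apparent Ki from competitive or tight-binding inhibition fits.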

[3] = target: T4, phosphorylated VEGF-R2Δ50 (Homo sapiens, UniProt P35968, DEL940-989/E990V); assay: VEGF-R2 ELISA assay; type: biochemical; details: * determined with ELISA assay, read-out: FLVK-P Ki
T4 construct: VEGF-R2Δ50 contains residues 806-939 and 990-1171; made in house; host or cells: baculovirus/insect cells
From the text: VEGF-R2 Construct for Assay: This construct determines the ability of a test compound to inhibit tyrosine kinase activity. A construct (VEGF-R2Δ50) of the cytosolic domain of human vascular endothelial growth factor receptor 2 (VEGF-R2) lacking the 50 central residues of the 68 residues of the kinase insert domain was expressed in a baculovirus/insect cell system. Of the 1356 residues of full-length VEGF-R2, VEGF-R2Δ50 contains residues 806-939 and 990-1171, and also one point mutation (E990V) within the kinase insert domain relative to wild-type VEGF-R2. Autophosphorylation of the purified construct was performed by incubation of the enzyme at a concentration of 4 μM in the presence of 3 mM ATP and 40 mM MgCl2 in 100 mM Hepes, pH 7.5, containing 5% glycerol and 5 mM DTT, at 4° C. for 2 h. […] See Parast et al., Biochemistry, 37, 16788-16801 (1998).
Formation of phosphogastrin was monitored using biotinylated gastrin peptide (1-17) as substrate. Biotinylated phosphogastrin was immobilized using streptavidin coated 96-well microtiter plates followed by detection using anti-phosphotyrosine-antibody conjugated to horseradish peroxidase. The activity of horseradish peroxidase was monitored using 2,2′-azino-di-[3-ethylbenzathiazoline sulfonate(6)]diammonium salt (ABTS). Typical assay solutions contained: 2 μM biotinylated gastrin peptide; 5 mM DTT; 20 μM ATP; 26 mM MgCl2; and 2 mM MnCl2 in 200 mM Hepes, pH 7.5. The assay was initiated with 0.8 nM of phosphorylated VEGF-R2Δ50. Horseradish peroxidase activity was assayed using ABTS, 10 mM. The horseradish peroxidase reaction was quenched by addition of acid (H2SO4), followed by absorbance reading at 405 nm. Ki values were determined by measuring enzyme activity in the presence of varying concentrations of test compounds. The data were analyzed using Enzyme Kinetic and Kaleidagraph software.

FL-CHK1 = target: T5, FL-CHK1 (Homo sapiens, UniProt O14757); assay: CHK1 assay; type: biochemical; details: Table 2; at 5 (head μM)
T5 construct: C-terminally His-tagged full-length human CHK1 (FL-CHK1); 6xHis (C); made in house; host or cells: baculovirus/insect cells
T5 sequence (O14757 1-476): T3 sequence (O14757 1-476)
Procedure, shortened: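 Full-length human CHK1 with C-terminal 6×His tag, made in baculovirus/insect cells, 10 nM, phosphorylating 0.125 mM Syntide-2 with 0.15 mM ATP in 50 mM Tris pH 7.5, 25 mM MgCl2, 400 mM NaCl. PK/LDH-coupled NADH oxidation read at 340 nm. Ki from initial rates over varied compound concentrations.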

CDK4/Cyclin D3 complex = target: T6, CDK4/Cyclin D3 complex (Homo sapiens, UniProt P11802); assay: CDK4/Cyclin D assay; type: biochemical; details: for CDK4 % inhibition @ 10: at 10 (head μM)
T6 construct: made in house; host or cells: insect cells co-infected with baculovirus vectors
Procedure, shortened: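 Insect-cell-expressed CDK4/cyclin D3 (50 nM) phosphorylating His-tagged Rb fragment (residues 386-928) with 25 μM [^32P]ATP in HEPES pH 7.4, MgCl2, 2% DMSO; 20 min at 30 °C, EDTA stop. Filter-captured 32P by phosphorimager; apparent Ki from competitive or tight-binding inhibition fits.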

FGF-R1 = target: T7, FGF-R1 (Homo sapiens, UniProt P11362, C488A/C584S/L457V); assay: FGF-R spectrophotometric assay; type: biochemical; details: Table 2
T7 construct: starting from the endogenous methionine residue 456 to glutamate 766; made in house; host or cells: baculovirus vector expression system
Method: FGF-R1 Construct for Assay: The intracellular kinase domain of human FGF-R1 was expressed using the baculovirus vector expression system starting from the endogenous methionine residue 456 to glutamate 766, according to the residue numbering system of Mohammadi et al., Mol. Cell. Biol., 16, 977-989 (1996). In addition, the construct also has the following 3 amino acid substitutions: L457V, C488A, and C584S.
The spectrophotometric assay was carried out as described above for VEGF-R2, except for the following changes in concentration: FGF-R=50 nM, ATP=2 mM, and poly(E4Y1)=15 mM.

T2 sequence (P35968 with tags, fused parts or gaps DEL940-989/E990V limits assumed): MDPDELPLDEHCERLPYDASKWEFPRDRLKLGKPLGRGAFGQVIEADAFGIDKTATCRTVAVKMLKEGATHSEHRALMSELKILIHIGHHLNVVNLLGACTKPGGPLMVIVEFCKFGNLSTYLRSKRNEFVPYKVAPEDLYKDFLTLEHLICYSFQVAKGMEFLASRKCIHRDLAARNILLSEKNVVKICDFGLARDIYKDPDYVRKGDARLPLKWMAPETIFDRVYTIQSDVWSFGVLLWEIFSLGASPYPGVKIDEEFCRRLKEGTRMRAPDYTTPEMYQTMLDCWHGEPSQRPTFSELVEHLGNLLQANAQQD
T4 sequence (P35968 with tags, fused parts or gaps DEL940-989/E990V limits assumed): as above
T6 sequence (P11802 whole entry): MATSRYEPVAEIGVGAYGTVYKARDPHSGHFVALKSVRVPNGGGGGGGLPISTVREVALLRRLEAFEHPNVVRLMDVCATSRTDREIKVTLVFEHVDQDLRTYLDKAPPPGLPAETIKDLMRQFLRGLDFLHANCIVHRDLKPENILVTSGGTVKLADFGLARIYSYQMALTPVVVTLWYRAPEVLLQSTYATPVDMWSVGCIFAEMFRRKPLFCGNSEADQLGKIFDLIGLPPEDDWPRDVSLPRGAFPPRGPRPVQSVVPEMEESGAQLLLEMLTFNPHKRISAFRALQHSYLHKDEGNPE
T6 sequence (P30281 whole entry partner): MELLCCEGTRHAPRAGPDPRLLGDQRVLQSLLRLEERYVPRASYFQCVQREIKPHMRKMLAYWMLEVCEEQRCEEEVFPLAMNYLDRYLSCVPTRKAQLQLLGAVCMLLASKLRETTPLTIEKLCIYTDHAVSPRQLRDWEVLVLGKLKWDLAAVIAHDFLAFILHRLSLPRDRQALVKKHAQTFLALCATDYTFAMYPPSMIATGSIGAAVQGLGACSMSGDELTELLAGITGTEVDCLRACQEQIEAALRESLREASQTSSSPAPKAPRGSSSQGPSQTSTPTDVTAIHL
T1 sequence (P35968 with tags, fused parts or gaps DEL940-989/E990V limits assumed): as the sequence (P35968 with tags, fused parts or gaps DEL940-989/E990V limits assumed) above
T7 sequence (P11362 456-766 L457V/C488A/C584S): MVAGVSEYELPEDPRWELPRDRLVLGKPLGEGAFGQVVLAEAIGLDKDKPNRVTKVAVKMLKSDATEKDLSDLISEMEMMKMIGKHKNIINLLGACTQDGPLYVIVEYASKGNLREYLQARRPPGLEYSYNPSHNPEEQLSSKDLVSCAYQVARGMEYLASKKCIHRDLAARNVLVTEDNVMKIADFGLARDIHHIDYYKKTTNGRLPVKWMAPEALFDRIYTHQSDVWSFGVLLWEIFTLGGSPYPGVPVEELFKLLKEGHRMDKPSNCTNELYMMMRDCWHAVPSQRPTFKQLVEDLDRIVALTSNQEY

Nc1nc(N)c(-c2nc(-c3cccc(NC(=O)c4ccccc4)c3)cs2)s1 [E(2), N-[3-(2 ′,4′-Diamino-[2,5′]bithiazolyl-4-yl)-phenyl]benzamide]
melting point: 159 to 163 °C (dec.)
pKi [1]: 7.42
pKi ([2]; Table 1): 6.41

Nc1nc(Nc2ccc(S(N)(=O)=O)cc2)sc1-c1nc(/C=C/c2ccc(O)cc2)cs1 [A(64), 4-{4′-Amino-4-[2-(4-hydroxy-phenyl)-vinyl]-[2,5′]bithiazolyl-2′-ylamino}-benzenesulfonamide]
% inhibition @ 20 μM (CHK1): 1.1% and 7.2% and 8.3%
melting point: 138 to 140 °C (dec.)
pKi (CDK2/Cyclin A complex; Table 2): 6.28

COc1cc(Nc2nc(N)c(-c3nc(-c4cccc(N)c4)cs3)s2)cc(OC)c1OC [C(1)]
melting point: 205 to 210 °C (dec.)
pKi ([3]; Table 1): 6.52

COc1cc(Nc2nc(N)c(-c3nc(-c4ccc(Cl)c(O)c4)cs3)s2)cc(OC)c1OC [A(22), 5-[4′-Amino-2′-(3,4,5-trimethoxy-phenylamino)-[2,5′]bithiazolyl-4-yl]-2-chloro-phenol]
inhibition at 20 µM (CHK1): 7.5%
melting point: 235 to 238 °C
CHK-1 % inhibition @ 5 (FL-CHK1): 54% @
pKi ([2]; Table 2): 7.68

Cc1ccc(-c2csc(-c3sc(Nc4ccc(S(N)(=O)=O)cc4)nc3N)n2)cc1 [A(24), 4-(4′-Amino-4-p-tolyl-[2,5′]bithiazolyl-2′-ylamino)-benzenesulfonamide]
inhibition at 20 µM (CHK1): 13.3%
pKi (CDK2/Cyclin A complex; Table 2): 5.47
CDK4 % inhibition @ 10 (CDK4/Cyclin D3 complex; Table 2): 64% @
pKi ([3]; Table 2): 5.26

Nc1nc(Nc2ccc(S(N)(=O)=O)cc2)sc1-c1nc(-c2ccc(F)cc2)cs1 [A(5), 4-[4′-Amino-4-(4-fluoro-phenyl)-[2,5′]bithiazolyl-2′-ylamino]-benzenesulfonamide]
melting point: 254 to 257 °C
CDK2 % inhibition @ 10 (CDK2/Cyclin A complex; Table 2): 27% @
CDK4 % inhibition @ 10 (CDK4/Cyclin D3 complex; Table 2): 30% @

Nc1nc(Nc2ccc(S(N)(=O)=O)cc2)sc1-c1nc(-c2ccc(F)cc2F)cs1 [A(4), 4-[4′-Amino-4-(2,4-difluoro-phenyl)-[2,5′]bithiazolyl-2′-ylamino]-benzenesulfonamide]
melting point: 233 to 238 °C
CDK2 % inhibition @ 10 (CDK2/Cyclin A complex; Table 2): 57% @
CDK4 % inhibition @ 10 (CDK4/Cyclin D3 complex; Table 2): 42% @

Nc1nc(Nc2ccc(S(N)(=O)=O)cc2)sc1-c1nc(-c2ccc(Cl)cc2Cl)cs1 [A(6), 4-[4′-Amino-4-(2,4-dichloro-phenyl)-[2,5′]bithiazolyl-2′-ylamino]-benzenesulfonamide]
melting point: 173 to 175 °C (dec.)
CDK2 % inhibition @ 10 (CDK2/Cyclin A complex; Table 2): 36% @
CDK4 % inhibition @ 10 (CDK4/Cyclin D3 complex; Table 2): 54% @

COc1cc(Nc2nc(N)c(C3=NC(c4ccccc4)CO3)s2)cc(OC)c1OC (stereo not shown) [I(6), S-5-(4-Phenyl-4,5-dihydro-oxazol-2-yl)-N^2-(3,4,5-trimethoxyl-phenyl)-thiazole-2,4-diamine]
pKi (FGF-R1): 4.66
pKi ([2]; Table 2): 7.00

CON(C)C(=O)c1csc(-c2sc(Nc3ccc(S(N)(=O)=O)cc3)nc2N)n1 [N(3), 4′-Amino-2′-(4-sulfamoyl-phenylamino)-[2,5′]bithiazolyl-4-carboxylic acid methoxy-methyl-amide]
melting point: 195 to 198 °C
pKi (CDK2/Cyclin A complex; Table 3): 7.00
pKi (CDK4/Cyclin D3 complex; Table 3): 5.96

Nc1nc(Nc2ccc(S(N)(=O)=O)cc2)sc1-c1nc(-c2cc(O)cc(OCc3ccccc3)c2)cs1 [A(61), 4-[4′-Amino-4-(3-benzyloxy-5-hydroxy-phenyl)-[2,5]bithiazolyl-2′-ylamino]-benzenesulfonamide]
melting point: 185 to 187 °C (dec.)
pKi (CDK2/Cyclin A complex; Table 2): 5.57

Nc1nc(Nc2ccc(S(N)(=O)=O)cc2)sc1-c1nc(/C=C/c2ccccc2)cs1 [A(63), 4-(4′-Amino-4-styryl-[2,5′]bithiazolyl-2′-ylamino)-benzenesulfonamide]
% inhibition @ 20 μM (CHK1): 3.8% and 5.4% and 9.8%
melting point: 140 to 143 °C (dec.)
pKi (CDK2/Cyclin A complex; Table 2): 5.70
pKi (CDK4/Cyclin D3 complex; Table 2): 4.70

Cc1c(F)cc(-c2csc(-c3sc(Nc4ccc(S(N)(=O)=O)cc4)nc3N)n2)cc1Cl [A(7), 4-[4′-Amino-4-(3-chloro-5-fluoro-4-methyl-phenyl)-[2,5′]bithiazolyl-2′-ylamino]-benzenesulfonamide]
melting point: 208 to 212 °C
CDK2 % inhibition @ 10 (CDK2/Cyclin A complex; Table 2): 25% @
CDK4 % inhibition @ 10 (CDK4/Cyclin D3 complex; Table 2): 28% @

Nc1nc(Nc2ccc(S(N)(=O)=O)cc2)sc1-c1nc(-c2cccc(C(=O)O)c2)cs1 [A(21), 3-[4′-Amino-2′-(4-sulfamoyl-phenylamino)-[2,5′]bithiazolyl-4-yl]-benzoic acid]
inhibition at 20 µM (CHK1): -7.2%
pKi (CDK2/Cyclin A complex; Table 2): 5.09
pKi (CDK4/Cyclin D3 complex; Table 2): 4.35
pKi ([3]; Table 2): 5.06
